Like-named read-outs stand apart in the source and are kept apart here.
Key:
Experiment in all cases: HotSpot kinase profiling
Assay type in all cases: biochemical
[1] = target: T1, CDK9/cyclin T1 (Homo sapiens, UniProt P50750)
T1 construct: purchased Reaction Biology Corp
Procedure, shortened: (§1)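 P81 filtration radiometric readout; 2 h incubation at room temperature; 0.1% phosphoric acid wash; DMSO negative control; % inhibition, mean of replicate runs.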

[2] = target: T2, GCK/MAP4K2 (Homo sapiens, UniProt Q12851)
T2 construct: purchased Reaction Biology Corp
T2 sequence (Q12851 1-820): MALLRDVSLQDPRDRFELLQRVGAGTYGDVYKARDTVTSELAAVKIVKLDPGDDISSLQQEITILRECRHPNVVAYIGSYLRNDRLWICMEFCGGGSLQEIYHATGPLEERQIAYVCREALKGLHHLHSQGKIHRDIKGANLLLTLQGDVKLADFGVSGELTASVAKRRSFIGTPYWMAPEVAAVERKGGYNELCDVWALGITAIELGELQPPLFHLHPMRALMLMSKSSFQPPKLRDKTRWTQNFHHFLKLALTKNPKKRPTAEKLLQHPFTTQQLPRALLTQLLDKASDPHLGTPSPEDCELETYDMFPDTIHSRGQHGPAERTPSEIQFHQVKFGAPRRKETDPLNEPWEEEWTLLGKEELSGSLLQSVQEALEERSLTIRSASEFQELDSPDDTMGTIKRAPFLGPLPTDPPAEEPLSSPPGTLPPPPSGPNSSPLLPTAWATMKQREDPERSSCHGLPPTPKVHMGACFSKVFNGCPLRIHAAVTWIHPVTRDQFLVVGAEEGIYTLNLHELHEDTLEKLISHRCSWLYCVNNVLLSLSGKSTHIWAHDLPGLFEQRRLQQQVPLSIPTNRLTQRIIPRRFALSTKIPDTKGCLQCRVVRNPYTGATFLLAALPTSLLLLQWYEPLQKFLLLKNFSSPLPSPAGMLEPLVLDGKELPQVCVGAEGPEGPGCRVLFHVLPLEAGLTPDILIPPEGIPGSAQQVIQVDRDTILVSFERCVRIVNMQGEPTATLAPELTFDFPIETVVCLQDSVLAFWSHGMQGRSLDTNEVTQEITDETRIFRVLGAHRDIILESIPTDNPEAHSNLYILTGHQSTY
Procedure, shortened: as §1

[3] = target: T3, MRCKb/CDC42BPB (Homo sapiens, UniProt Q9Y5S2)
T3 construct: purchased Reaction Biology Corp
Procedure, shortened: as §1

[4] = target: T4, PHKg1 (Homo sapiens, UniProt Q16816)
T4 construct: purchased Reaction Biology Corp
Procedure, shortened: as §1

[5] = target: T5, PLK4/SAK (Homo sapiens, UniProt O00444)
T5 construct: purchased Reaction Biology Corp
T5 sequence (O00444 1-970): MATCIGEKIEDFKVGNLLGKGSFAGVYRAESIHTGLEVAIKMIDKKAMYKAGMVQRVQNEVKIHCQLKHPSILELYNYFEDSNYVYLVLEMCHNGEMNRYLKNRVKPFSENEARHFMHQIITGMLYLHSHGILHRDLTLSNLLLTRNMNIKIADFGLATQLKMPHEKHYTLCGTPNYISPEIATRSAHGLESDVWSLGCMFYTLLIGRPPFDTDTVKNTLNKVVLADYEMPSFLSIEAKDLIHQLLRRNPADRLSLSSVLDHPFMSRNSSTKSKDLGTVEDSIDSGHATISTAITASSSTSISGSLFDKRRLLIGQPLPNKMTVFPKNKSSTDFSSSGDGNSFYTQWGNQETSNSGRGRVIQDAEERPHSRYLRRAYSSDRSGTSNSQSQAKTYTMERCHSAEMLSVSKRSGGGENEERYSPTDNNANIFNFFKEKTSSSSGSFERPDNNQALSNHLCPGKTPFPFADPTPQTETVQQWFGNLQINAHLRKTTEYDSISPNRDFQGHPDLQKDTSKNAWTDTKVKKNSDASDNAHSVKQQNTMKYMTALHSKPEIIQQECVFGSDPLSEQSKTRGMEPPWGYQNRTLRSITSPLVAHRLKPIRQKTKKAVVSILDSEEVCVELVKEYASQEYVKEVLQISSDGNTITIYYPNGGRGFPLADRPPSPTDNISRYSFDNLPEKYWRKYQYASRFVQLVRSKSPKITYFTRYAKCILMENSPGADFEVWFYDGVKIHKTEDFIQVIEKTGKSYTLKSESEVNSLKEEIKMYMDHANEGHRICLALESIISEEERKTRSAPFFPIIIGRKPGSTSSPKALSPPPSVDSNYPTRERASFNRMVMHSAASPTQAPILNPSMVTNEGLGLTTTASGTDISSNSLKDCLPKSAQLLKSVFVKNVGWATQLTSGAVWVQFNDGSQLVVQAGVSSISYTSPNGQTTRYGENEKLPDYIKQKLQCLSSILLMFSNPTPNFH
Procedure, shortened: as §1

[6] = read-out: % Enzyme Activity (relative to DMSO controls) Run 1
[7] = read-out: % Enzyme Activity (relative to DMSO controls) Run 2

T4 sequence (Q16816 whole entry): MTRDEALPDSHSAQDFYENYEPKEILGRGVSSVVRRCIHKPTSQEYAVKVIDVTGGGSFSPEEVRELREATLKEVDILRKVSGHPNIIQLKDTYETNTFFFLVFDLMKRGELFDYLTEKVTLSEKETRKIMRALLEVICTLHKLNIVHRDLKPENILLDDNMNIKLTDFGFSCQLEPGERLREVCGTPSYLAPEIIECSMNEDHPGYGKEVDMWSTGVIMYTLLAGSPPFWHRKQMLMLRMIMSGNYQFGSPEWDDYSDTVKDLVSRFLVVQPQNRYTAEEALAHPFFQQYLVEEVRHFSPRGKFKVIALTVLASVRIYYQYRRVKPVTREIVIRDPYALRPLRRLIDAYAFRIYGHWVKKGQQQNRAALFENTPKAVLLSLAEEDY
T3 sequence (Q9Y5S2 whole entry): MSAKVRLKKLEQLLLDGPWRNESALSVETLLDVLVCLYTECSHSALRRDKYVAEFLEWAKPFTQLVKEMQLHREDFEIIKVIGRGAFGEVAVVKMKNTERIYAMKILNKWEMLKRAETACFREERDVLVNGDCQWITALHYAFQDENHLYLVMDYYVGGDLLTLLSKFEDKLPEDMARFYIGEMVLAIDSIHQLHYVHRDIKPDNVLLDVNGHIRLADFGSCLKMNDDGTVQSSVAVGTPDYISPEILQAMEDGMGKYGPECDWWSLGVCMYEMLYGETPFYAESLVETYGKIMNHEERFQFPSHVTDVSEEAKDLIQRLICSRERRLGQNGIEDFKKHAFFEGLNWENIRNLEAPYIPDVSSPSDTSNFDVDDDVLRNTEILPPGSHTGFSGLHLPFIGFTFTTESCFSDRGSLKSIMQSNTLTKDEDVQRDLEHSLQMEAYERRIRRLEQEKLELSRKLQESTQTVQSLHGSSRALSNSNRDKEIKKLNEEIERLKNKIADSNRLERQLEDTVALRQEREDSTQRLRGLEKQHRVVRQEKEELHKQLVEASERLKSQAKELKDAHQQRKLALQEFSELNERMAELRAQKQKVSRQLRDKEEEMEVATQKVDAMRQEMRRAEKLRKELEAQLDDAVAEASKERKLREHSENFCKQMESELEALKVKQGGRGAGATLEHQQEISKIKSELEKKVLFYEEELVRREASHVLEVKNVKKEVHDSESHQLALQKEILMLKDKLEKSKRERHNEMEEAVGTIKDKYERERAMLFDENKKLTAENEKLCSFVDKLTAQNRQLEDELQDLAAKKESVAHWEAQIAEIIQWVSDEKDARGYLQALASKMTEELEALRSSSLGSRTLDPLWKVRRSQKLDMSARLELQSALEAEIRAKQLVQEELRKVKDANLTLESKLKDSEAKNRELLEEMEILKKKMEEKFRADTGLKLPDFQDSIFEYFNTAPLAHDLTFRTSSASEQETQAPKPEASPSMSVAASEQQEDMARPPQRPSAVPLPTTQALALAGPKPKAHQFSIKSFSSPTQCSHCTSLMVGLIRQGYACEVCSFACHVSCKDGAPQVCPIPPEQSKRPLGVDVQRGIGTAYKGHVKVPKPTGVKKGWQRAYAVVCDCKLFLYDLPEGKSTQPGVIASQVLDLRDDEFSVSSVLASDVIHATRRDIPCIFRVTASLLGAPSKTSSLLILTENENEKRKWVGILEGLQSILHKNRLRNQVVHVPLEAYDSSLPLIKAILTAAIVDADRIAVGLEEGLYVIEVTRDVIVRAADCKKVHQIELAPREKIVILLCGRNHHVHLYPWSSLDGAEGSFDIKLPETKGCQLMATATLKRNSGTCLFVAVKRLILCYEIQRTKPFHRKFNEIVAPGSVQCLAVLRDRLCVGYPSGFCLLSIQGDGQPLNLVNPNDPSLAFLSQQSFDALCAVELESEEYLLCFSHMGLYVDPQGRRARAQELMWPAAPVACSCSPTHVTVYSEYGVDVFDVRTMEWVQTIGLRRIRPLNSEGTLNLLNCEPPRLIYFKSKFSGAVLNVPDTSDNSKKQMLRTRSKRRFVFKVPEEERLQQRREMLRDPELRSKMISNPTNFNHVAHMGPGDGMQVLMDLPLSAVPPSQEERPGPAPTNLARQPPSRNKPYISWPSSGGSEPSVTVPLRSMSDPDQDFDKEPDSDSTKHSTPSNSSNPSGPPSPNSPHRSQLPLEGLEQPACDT
T1 sequence (P50750 whole entry): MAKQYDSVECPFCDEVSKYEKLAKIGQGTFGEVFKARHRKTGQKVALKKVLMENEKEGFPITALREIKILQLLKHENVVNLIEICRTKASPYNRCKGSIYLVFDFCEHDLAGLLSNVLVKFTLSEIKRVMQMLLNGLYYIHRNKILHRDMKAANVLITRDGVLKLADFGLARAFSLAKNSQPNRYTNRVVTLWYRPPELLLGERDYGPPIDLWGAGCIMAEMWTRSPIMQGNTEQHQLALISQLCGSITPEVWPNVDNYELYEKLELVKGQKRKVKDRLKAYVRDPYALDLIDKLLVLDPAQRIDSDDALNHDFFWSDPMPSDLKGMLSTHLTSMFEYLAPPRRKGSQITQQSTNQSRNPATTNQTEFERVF
T1 sequence (O60563 whole entry partner): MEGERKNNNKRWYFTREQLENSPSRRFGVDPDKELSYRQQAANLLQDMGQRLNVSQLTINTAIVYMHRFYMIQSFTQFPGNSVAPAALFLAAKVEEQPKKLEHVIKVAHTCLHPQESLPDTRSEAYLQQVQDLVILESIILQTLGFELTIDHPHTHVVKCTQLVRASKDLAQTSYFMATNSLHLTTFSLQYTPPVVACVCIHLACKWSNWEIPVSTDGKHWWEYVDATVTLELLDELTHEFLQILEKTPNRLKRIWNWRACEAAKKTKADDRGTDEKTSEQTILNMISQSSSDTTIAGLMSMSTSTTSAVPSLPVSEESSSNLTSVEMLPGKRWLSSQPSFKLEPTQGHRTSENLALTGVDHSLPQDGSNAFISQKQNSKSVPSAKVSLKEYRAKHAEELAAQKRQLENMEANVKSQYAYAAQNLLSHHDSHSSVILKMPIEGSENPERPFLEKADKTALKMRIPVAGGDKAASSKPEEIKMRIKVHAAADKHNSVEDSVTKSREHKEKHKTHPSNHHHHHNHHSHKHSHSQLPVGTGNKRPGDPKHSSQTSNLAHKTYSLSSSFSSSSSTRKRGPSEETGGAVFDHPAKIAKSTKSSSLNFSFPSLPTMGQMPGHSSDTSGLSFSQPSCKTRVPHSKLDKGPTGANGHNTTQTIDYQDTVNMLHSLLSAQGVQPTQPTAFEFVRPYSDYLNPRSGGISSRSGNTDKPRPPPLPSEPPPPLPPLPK

## C=CC(=O)Nc1cccc(Nc2nc(Nc3ccc(OCCOC)c(F)c3)ncc2F)c1 [Compound 2]
[1]
  inhibition at 3 µM: 10.3%
[1]; [6]
  remaining activity at 3 µM: 87.8%
[1]; [7]
  remaining activity at 3 µM: 91.5%
[2]
  inhibition at 3 µM: -0.14%
[2]; [6]
  remaining activity at 3 µM: 100%
[2]; [7]
  remaining activity at 3 µM: 100%
[3]
  inhibition at 3 µM: -6.12%
[3]; [6]
  remaining activity at 3 µM: 107%
[3]; [7]
  remaining activity at 3 µM: 105%
[4]
  inhibition at 3 µM: 14.5%
[4]; [6]
  remaining activity at 3 µM: 85.8%
[4]; [7]
  remaining activity at 3 µM: 85.2%
[5]
  inhibition at 3 µM: 45%
[5]; [6]
  remaining activity at 3 µM: 54.8%
[5]; [7]
  remaining activity at 3 µM: 55.2%

Source: patent publication US9492471B2, “Methods of treating a disease or disorder associated with Bruton'S Tyrosine Kinase” (Celgene Avilomics Research, Inc., priority 2013, dated 2016)
